We go through two compounds from patent publication US9034863B2, “Compositions and methods for inhibiting entry of a hepatic virus” (The Board of Trustees of the University of Illinois, priority 2008, dated 2015).

Read-outs that look alike come from different tables or passages of the source.

The subject of one data set is HCV. As to the kind of experiment: Prevention of HCV infection in mice with chimeric human livers. In kind it is in vivo. As to conditions: 10 mg/kg/day oral gavage from ~7 days prior to infection. From the text:
Alternatively, severe combined immunodeficient (SCID)/urokinase plasminogen activator (uPA) mice can be used. Mice are transplanted with primary human hepatocytes according to conventional methods (Azuma, et al. (2007) Nat. Biotechnol. 25:903-910; Bissig, et al. (2007) Proc. Natl. Acad. Sci. USA 104:20507-20511) and monitored for two months post-transplantation to assess repopulation efficiency by measuring human albumin serum levels. Using these models, mice can be assessed for the prevention of HCV infection or the inhibition of an already established infection.
Mice are injected with HCV positive human serum (of any HCV genotype) and HCV RNA serum levels are quantified daily and/or weekly to assess the efficacy with which the treatments reduces the amplification of HCV RNA levels. Evidence that ezetimibe reduces the amplification HCV levels in vivo, as compared to untreated animals, provides in vivo evidence that ezetimibe is an effective treatment for HCV in patients.

The subject of data set [1] is Huh7 cells. The data set can be described thus: Cell proliferation assay (cellular ATP, […] Plus). Format: cell-based, human. As to conditions: increasing doses. From the text:
(§1) The […] Plus Cell Proliferation assay kit (Lonza, Walkersville, Md.), which incorporates bioluminescent detection of cellular ATP as a measure of cell viability and proliferation, was used according to the manufacturer's instructions. Briefly, mock-treated and drug-treated cultures were lysed in Cell Lysis reagent for […]. One hundred μl of culture medium was transferred to white 96-well plates (BD Biosciences) containing ATP detection reagent and luminescence, expressed as relative light units (RLU), was measured (Fluostar OPTIMA). To assess drug-induced cellular toxicity, a bioluminescence-based assay (The TOXILIGHT BioAssay Kit, Lonza) that measures adenylate kinase (AK) released from damaged cells was used as per the manufacturer's instructions. […] One hundred μl of AK detection reagent was then added to each well, and luminescence (RLU) was measured (Fluostar OPTIMA).
(§2) To ensure that the inhibition observed was not due to ezetimibe-induced changes in cell proliferation or cytotoxicity, cellular ATP was measured as a read-out of Huh7 cell viability and proliferation and cellular toxicity by adenylate kinase release following treatment with increasing doses of ezetimibe. […] Furthermore, to test the specificity of the observed HCV inhibition, the effect of ezetimibe on entry of another flavivirus, Dengue virus (DNV), was assessed.

Another data set has as its system Dengue virus (DNV). As to the kind of experiment: Dengue virus plaque formation. Conditions: 12.5 or 25 μM. Format: cell-based. On the procedure: as §2
Data set [2] relates to HCVcc. As to the kind of experiment: Steady-state HCVcc RNA levels in chronically infected Huh7 cultures, 24-96 h. Format: cell-based, Hepatitis C virus (HCV). Conditions: 30 μM, 24-96 hours post-treatment. How it is done:
Huh7 cultures were inoculated with HCVcc at an MOI of 0.01 FFU cell-1. Infected cultures were maintained for an additional 10 days to allow HCV RNA to reach steady-state levels. Cultures were then vehicle-treated, treated with ezetimibe (30 μM) or 2′-C-methylcytidine (12.5 μM). Fresh medium containing the specified treatments was replenished every day throughout the course of the experiment. Intracellular RNA was collected from triplicate wells at 24, 48, 72 and 96 hours post-treatment and HCV RNA was quantified by RT-qPCR and normalized to GAPDH.

A further data set deals with wild-type HCVcc^JFH-1. The data set can be described thus: Infection of Huh7 cells with wild-type HCVcc JFH-1, intracellular HCV RNA. Format: cell-based, Hepatitis C virus (HCV). Conditions: 30 μM, 48 hours post-infection. How it is done: (§3) Studies have shown that a G451R mutation in the viral envelope glycoprotein (E2) results in HCV virions of […] density and faster infection kinetics (thong, et al. (2006) J. Virol. 80:11082-11093). […] Thus, if ezetimibe was blocking HCV entry via an SR-B1 mediated mechanism, it would be expected that the mutant G451R virus would be less susceptible to the effects of ezetimibe. As a result, experiments were performed to assess the antiviral efficacy of ezetimibe against the SR-B1-independent HCVcc^G451R virus. Monolayers of Huh7 cells were inoculated with either wild-type HCVcc^JFH-1 or HCVcc^G451R at an MOI of 0.01 FFU/cell for 12 hours. Ezetimibe treatment at concentrations of 15 or 30 μM was initiated (and then continued) either 6 hours prior to infection, during the 12 hour incubation of the virus on the cells, or immediately following the 12 hour viral inoculation period. Ezetimibe at a concentration of 30 μM inhibited HCVcc^JFH-1 infection approximately 10-fold at 48 hours post-infection.

The subject of another data set is HCVcc JFH-1. As to the kind of experiment: HCV binding versus internalization, cell-associated HCV RNA (FIG. 1). In kind it is cell-based, Hepatitis C virus (HCV). How it is done:
Monolayers of human hepatoma cell line Huh7 were inoculated with HCVcc JFH-1 (cell culture produced HCV JFH-1, which is a specific HCV clone isolated from a Japanese Fulminant Hepatitis patient) at an MOI of 0.1 FFU/cell for 6 hours in the presence or absence of increasing concentrations of ezetimibe. Cultures were washed extensively and cell associated RNA was collected 6 and 30 hours post-infection (p.i.) to determine the amount of bound and internalized virus, respectively. […] Results are graphed as means±s.e.m. for triplicate samples. The data presented are representative of three independent experiments. Assay background (i.e., HCV RNA level detected in uninfected samples) is equal to ˜0.5−1.0×10^2 copies/μg total cellular RNA. Significant reduction in HCV RNA levels relative to mock-treated cultures is denoted by a single asterisk (p<0.05, one-way ANOVA and Tukey's post hoc t test).
To decipher whether ezetimibe inhibits HCV cellular binding or subsequent internalization, cell-associated HCV RNA and protein in mock- and ezetimibe-treated HCVcc-infected cultures was examined.

The test system of data set [3] is HCVcc. As to the kind of experiment: HCV foci reduction assay, acute HCVcc infection of Huh7 cells. In kind it is cell-based, Hepatitis C virus (HCV). Conditions: for inhibition at 12.5 µM / inhibition at 25 µM: Hepatitis C virus, Huh-7, read-out: inhibition of HCV foci formation.
Data set [4] concerns Huh7 cells. As to the kind of experiment: Cytotoxicity assay (adenylate kinase release, TOXILIGHT). In kind it is cell-based, human.
Excerpt: as §1, §2

The test system of the next data set is HCVcc^G451R. The data set can be described thus: Infection of Huh7 cells with SR-B1-independent HCVcc G451R, intracellular HCV RNA. In kind it is cell-based, Hepatitis C virus (HCV). How it is done:
as §3

A further data set concerns JFH-1. As to the kind of experiment: Infectivity of intracellular virus from naringenin-treated cells. Format: cell-based, Hepatitis C virus (HCV). As to conditions: standard cell-free infection of naïve Huh7-1 cells. On the procedure:
To determine the nature of the intracellular JFH-1 virion particles which are able to spread from cell-to-cell, even in the absence of secretion, the buoyant density of the accumulated, intracellular particles from naringenin-treated cells were analyzed on iodixanol gradients. It was observed that the peak of RNA from these cells was shifted towards the heavier fractions consistent with the intracellular particles in naringenin-treated cells being less lipidated. Infectivity of the intracellular virus from naringenin-treated cells was reduced by more than 95% in a standard cell-free virus infection of naïve Huh7-1 cells.

[5] abbreviates: co-incubated with HCVcc for 12 h.
[6] abbreviates: pre-treatment 6 h prior to infection, compared to untreated cultures.

As to `O=C1[C@H](CC[C@H](O)c2ccc(F)cc2)[C@@H](c2ccc(O)cc2)N1c1ccc(F)cc1` [ezetimibe, 1-(4-fluorophenyl)-(3R)-[3-(4-fluorophenyl)-(3S)-hydroxypropyl]-(45)-(4-hydroxyphenyl)-2-azetidinone], in the data set with HCV, the “establishment of HCV infection (serum HCV RNA)” value is “prevents the establishment of HCV infection”. The “cell proliferation (cellular ATP)” value in the data set with Huh7 cells [1] is on record as “did not inhibit cell proliferation”. The “reduction in DNV plaque formation” value in the data set with Dengue virus (DNV) was “no significant reduction”. In addition, the “steady state HCVcc RNA levels” value with HCVcc [2] is reported as “did not inhibit steady state HCVcc RNA levels”. In the data set with wild-type HCVcc^JFH-1, the “inhibition of HCVcc JFH-1 infection” value was “approximately 10 fold”. Further, the “virion binding (cell-associated HCV RNA)” value in the data set with HCVcc JFH-1 (6 hours p.i.) is given as “not binding”. The “HCV entry/internalization (HCV RNA expansion, de novo NS5A expression)” value in the data set on HCVcc JFH-1 (later time points (30 hours p.i.)) is “inhibits HCV internalization”. Also, in the data set with HCVcc [3] (setting [5]), the inhibition at 12.5 µM was 90% and the inhibition at 25 µM worked out at 99%. Moreover, in the data set with HCVcc [3] (setting [6]), the inhibition at 12.5 µM was found to be 85% and the inhibition at 25 µM was found to be 95%. The “degree of inhibition of HCV foci formation” value with HCVcc [3] (added to cells post-infection) was “greatly reduced”. In the data set with Huh7 cells [4] (increasing doses), the “cellular toxicity (adenylate kinase release)” value is listed as “did not inhibit cell proliferation or induce cellular toxicity”. The cytotoxicity entry with Huh7 cells [4] (treatment of Huh7 cells for 12 hours, concentrations tested) is “not cytotoxic”. The same compound showed an infection blocked with HCVcc^G451R of around 100%.

Take `O=C1C[C@@H](c2ccc(O)cc2)Oc2cc(O)cc(O)c21` [naringenin]: in the data set on JFH-1, the “reduction of infectivity of intracellular virus” value is given as “more than 95%”.
